Test results reported in the supplement of paper PMC13380429.

How the values were obtained:
Conditions in all cases: 72 h
[1] = test system: Calu-3; test: cell viability relative to DMSO; higher = less toxic
[2] = test system: Caco-2; test: as above
[3] = test system: Vero E6; test: as above
[4] = test system: U2OS; test: as above
[5] = test system: HepG2; test: as above
[6] = test system: Calu-3; test: drug sensitivity score (DSS) for viability; higher = more toxic; extreme values may be limits of the assay
[7] = test system: Caco-2; test: as above
[8] = test system: Vero E6; test: as above
[9] = test system: U2OS; test: as above
[10] = test system: HepG2; test: as above
[11] = test system: Calu-3; test: relative viability EC50 (midpoint between 100% and the lowest measured viability); higher = less toxic
[12] = test system: Caco-2; test: as above
[13] = test system: U2OS; test: as above
[14] = test system: HepG2; test: as above

Row | Compound | cell viability ([1]; 1 nM) [%] | cell viability ([1]; 10 nM) [%] | cell viability ([1]; 100 nM) [%] | cell viability ([1]; 1000 nM) [%] | cell viability ([1]; 10000 nM) [%] | cell viability ([2]; 1 nM) [%] | cell viability ([2]; 10 nM) [%] | cell viability ([2]; 100 nM) [%] | cell viability ([2]; 1000 nM) [%] | cell viability ([2]; 10000 nM) [%] | cell viability ([3]; 1 nM) [%] | cell viability ([3]; 10 nM) [%] | cell viability ([3]; 100 nM) [%] | cell viability ([3]; 1000 nM) [%] | cell viability ([3]; 10000 nM) [%] | cell viability ([4]; 1 nM) [%] | cell viability ([4]; 10 nM) [%] | cell viability ([4]; 100 nM) [%] | cell viability ([4]; 1000 nM) [%] | cell viability ([4]; 10000 nM) [%] | cell viability ([5]; 1 nM) [%] | cell viability ([5]; 10 nM) [%] | cell viability ([5]; 100 nM) [%] | cell viability ([5]; 1000 nM) [%] | cell viability ([5]; 10000 nM) [%] | drug sensitivity score [6] | drug sensitivity score [7] | drug sensitivity score [8] | drug sensitivity score [9] | drug sensitivity score [10] | relative viability EC50 [11] [µM] | relative viability EC50 [12] [µM] | relative viability EC50 [13] [µM] | relative viability EC50 [14] [µM]
1 | CCn1c(-c2nonc2N)nc2cnc(Oc3cccc(NC(=O)c4ccc(OCCN5CCOCC5)cc4)c3)cc21 | 97.9 | 123 | 144 | 131 | 125 | 94.9 | 98 | 94.9 | 97.8 | 67.7 | 96.5 | 99.3 | 88.9 | 72.2 | 72.1 | 97.5 | 98.6 | 91.4 | 78.5 | 62.1 | 96.6 | 107 | 114 | 80.4 | 52.4 | 0 | 1.8 | 5.9 | 4.4 | 5.1 | > 10 | – | – | –
2 | Cc1nnc2ccc(-c3cccc(C(F)(F)F)c3)nn12 | 99.5 | 111 | 95 | 101 | 91.2 | 92.5 | 97.3 | 107 | 97.6 | 87.9 | – | – | – | – | – | 99.1 | 98.8 | 94.3 | 99.4 | 94.5 | 107 | 102 | 107 | 90.4 | 108 | 0 | 0.2 | – | 0 | 0 | > 10 | > 10 | > 10 | > 10
3 | N#CCC(=O)c1ccccc1 | 103 | 108 | 96.3 | 100 | 94.7 | 106 | 105 | 89.2 | 98.2 | 102 | – | – | – | – | – | 100 | 99.9 | 100 | 98.3 | 104 | 94.9 | 103 | 101 | 106 | 96.2 | 0 | 0 | – | 0 | 0 | > 10 | > 10 | > 10 | > 10
4 | NS(=O)(=O)NCc1csc2ccccc12 | 90.7 | 93.4 | 94.8 | 103 | 95.4 | 84.1 | 95.7 | 96.2 | 94.3 | 87.3 | – | – | – | – | – | 102 | 106 | 96.4 | 104 | 99.8 | 109 | 97 | 111 | 98.7 | 112 | 0 | 0 | – | 0 | 0 | > 10 | > 10 | > 10 | > 10
